For twelve molecules, GI50 and TGI results are on record in PubChem BioAssay (NCI).

What all share (test): NCI anticancer screen, dose series, 48 h
Assay [1] has as its system BT-549 breast.
The subject of assay [2] is SK-MEL-5 melanoma.
The subject of assay [3] is SK-MEL-28 melanoma.
Assay [4] deals with SNB-75 CNS.
Assay [5] concerns EKVX NSCLC.
The test system of assay [6] is MALME-3M melanoma.
Assay [7] has as its system A498 renal.
The subject of assay [8] is SF-539 CNS.
Assay [9] has as its system SK-MEL-2 melanoma.
Assay [10] relates to OVCAR-8 ovarian.

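Grown in 96-well plates, cells were treated for 48 hours with each compound at five concentrations. Insufficient inhibition: endpoint recorded as highest concentration tested. Here, GI50 denotes the concentration required for 50% inhibition of growth. The concentration for full growth arrest is given as TGI.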

`CNC(C)[C@H]1CCC2C3CC=C4C(=O)[C@@H](NC(=O)C=C(C)C)CC[C@]4(C)C3CC[C@@]21C` (stereo not given in full): the GI50 in assay [1] was 2.34 µM; in [2] it was 1.14 µM; in assay [3] it was 1.69 µM; in [4], 2.26 µM; in assay [5], 1.14 µM; in [6] it was 1.64 µM. Moreover, the GI50 was 1.3 µM in [7], 1.3 µM in [8], 2.74 µM in [9] and 3.91 µM in assay [10]. Moreover, the TGI came out at 8.42 µM in assay [1]; 2.39 µM in assay [2]; 3.3 µM in assay [3]; 10.4 µM in [4]; 11.2 µM in assay [5]; 3.47 µM in assay [6]. Also, the TGI was found to be 8.26 µM in assay [7], 2.64 µM in assay [8], 6.9 µM in assay [9] and 20.2 µM in assay [10].

Consider `Cn1c(=S)c2[nH]c(SCCCc3ccccc3)nc2n(C)c1=O`, for which the TGI is > 100 µM in assay [1]; 33.5 µM in assay [2]; > 100 µM in assay [3]; 84.5 µM in assay [4]; 79.3 µM in [5]; > 100 µM in assay [6]. Also, the TGI is 49.1 µM in assay [7], > 100 µM in assay [8], > 100 µM in [9] and > 100 µM in [10].

Consider `Cc1noc2c1-c1ccccc1C(c1ccc(Cl)cc1)=N[C@H]2CC(N)=O`, for which the GI50 was 10.9 µM in assay [1]; 6.96 µM in [2]; 7.38 µM in assay [3]; 0.134 µM in [4]; 14 µM in [5]; 5.17 µM in assay [6]. For the same molecule, the GI50 in assay [7] is 0.235 µM; in assay [8], 5.17 µM; in assay [9], 18.1 µM; in [10], 15.2 µM. Further, the TGI in [1] was > 100 µM; in assay [2], > 75.2 µM; in [3], > 100 µM; in assay [4], > 100 µM; in [5] it was > 100 µM; in assay [6], > 100 µM. Also, the TGI in assay [7] is 15.5 µM; in assay [8], > 100 µM; in [9], > 100 µM; in assay [10], > 100 µM.

`CCOC(=O)c1sc(NC(=O)COc2cccc(/C=C3\CCc4cc(OC)ccc4C3=O)c2)nc1C`: the GI50 is 3.26 µM in assay [1]; 2.65 µM in [2]; 18.2 µM in [3]; 2.51 µM in assay [4]; 74 µM in assay [5]; 47 µM in assay [6]. The GI50 is 16.3 µM in assay [7], 2.1 µM in assay [8], 5.38 µM in [9] and 4.59 µM in [10]. Also, the TGI is > 100 µM in [1]; 13.3 µM in assay [2]; > 100 µM in assay [3]; > 100 µM in assay [4]; > 100 µM in assay [5]; > 100 µM in assay [6]. Further, the TGI is 76.6 µM in assay [7], 7.58 µM in assay [8], > 100 µM in assay [9] and 25.3 µM in assay [10].

Regarding `COc1ccc(/C=C/c2cnccn2)cc1OC`, the TGI in assay [1], in assay [2], in assay [3], in assay [4], in assay [5] and in [6] was > 10 µM in each case. The TGI in assay [7], in assay [8], in [9] and in assay [10] was > 10 µM each time.

`CN1C(NNC(=O)c2cccnc2)=NS(=O)(=O)c2cc(Cl)ccc21`: the GI50 in [1], in assay [2], in assay [3], in assay [4], in assay [5] and in [6] was > 100 µM each time. Further, the GI50 in assay [7], in [8], in assay [9] and in assay [10] was > 100 µM throughout. Moreover, the TGI in [1], in assay [2], in assay [3], in assay [4], in assay [5] and in assay [6] was > 100 µM in each case. For the same molecule, the TGI in assay [7], in assay [8], in [9] and in [10] was > 100 µM each time.

For the molecule `NCCCOc1cc2ccccc2cc1C(=O)NCCCOc1cc2ccccc2cc1C(=O)Nc1ccc(Cl)cc1O`, the GI50 in [1] is 1.85 µM; in assay [2] it was 1.36 µM; in assay [3], 0.289 µM; in assay [4], 0.455 µM; in assay [5] it was 0.74 µM; in [6], 1.48 µM. For the same molecule, the GI50 in [7] is 0.552 µM; in [8], 1.05 µM; in assay [9], 1.21 µM; in assay [10], 0.24 µM. For the same molecule, the TGI is 3.6 µM in assay [1]; 2.8 µM in assay [2]; 0.728 µM in assay [3]; 1.02 µM in assay [4]; 2.43 µM in assay [5]; 3.5 µM in assay [6]. Further, the TGI came to 1.99 µM in [7], 2.57 µM in [8], 2.91 µM in assay [9] and 0.557 µM in [10].

On to `CC1=NC(C)(COC(=O)C2(C)NC(C)(CO)CO2)COC1=O` (stereo not given), for which the TGI in assay [1], in assay [2], in [3], in [4], in [5] and in assay [6] was > 100 µM throughout. Moreover, the TGI in assay [7], in [8], in [9] and in assay [10] was > 100 µM each time.

With `O=[N+]([O-])c1ccc(Sc2c3ccccc3nc3ccccc23)cn1`, the TGI in [1] is 28.8 µM; in assay [2], > 100 µM; in assay [3], 58.4 µM; in assay [4], > 63.4 µM; in assay [5], > 86.2 µM; in [6] it was 19.9 µM. For the same molecule, the TGI was > 100 µM in [7], > 20.5 µM in assay [8], 48.1 µM in assay [9] and 52.5 µM in [10].

On to `Cn1cc(-c2csc(-c3cn(C)c4ccc(F)cc34)n2)c2cnccc21`, for which the GI50 in assay [1] was 1.71 µM; in assay [2], 1.66 µM; in [3] it was 1.79 µM; in [4], 1.4 µM; in [5], 1.87 µM; in assay [6], 1.97 µM. For the same molecule, the GI50 in [7] is 1.62 µM; in assay [8], 1.85 µM; in assay [9] it was 1.79 µM; in assay [10] it was 2.02 µM. The TGI in [1] came out at 3.1 µM; in [2], 3.05 µM; in assay [3] it was 3.22 µM; in assay [4], 2.74 µM; in assay [5], 3.7 µM; in assay [6] it was 3.57 µM. The TGI in assay [7] came to 3.04 µM; in [8], 3.35 µM; in [9] it was 3.38 µM; in assay [10] it was 3.93 µM.

As to `NC(N)=N/N=C(\N=Nc1ccccc1)c1ccc(Cl)cc1`, the GI50 in assay [1] was 4.86 µM; in assay [2], 3.73 µM; in [3], 1.98 µM; in assay [4], 4.67 µM; in [5], 2.55 µM; in assay [6] it was 4.68 µM. Besides, the GI50 in assay [7] was 9.53 µM; in assay [8], 2.98 µM; in [9], 3.79 µM; in assay [10], 2.81 µM. Further, the TGI turned out to be 19.2 µM in assay [1]; 14.8 µM in assay [2]; 4.59 µM in [3]; 17.8 µM in [4]; 13.5 µM in assay [5]; 17.2 µM in assay [6]. The TGI in [7] is 22.2 µM; in assay [8], 8.1 µM; in assay [9], 13.1 µM; in assay [10], 9.58 µM.

As to `COc1cc2c3c(n(CCCN(CCO)CCO)c(=O)c2cc1OC)-c1cc2c(cc1C3=O)OCO2`, the GI50 in assay [1] is 0.586 µM; in [2], < 0.0159 µM; in assay [3], 2.27 µM; in assay [4], 0.0811 µM; in assay [5] it was 0.887 µM; in assay [6], 0.67 µM. Besides, the GI50 is < 0.01 µM in [7], < 0.01 µM in assay [8], 8.79 µM in [9] and 0.221 µM in [10]. Besides, the TGI in assay [1] is 13.6 µM; in assay [2], 0.413 µM; in assay [3] it was 26.6 µM; in [4] it was 2.19 µM; in assay [5] it was 13.6 µM; in assay [6], 23.4 µM. Also, the TGI was 0.345 µM in assay [7], < 0.0264 µM in assay [8], > 33 µM in assay [9] and 6.01 µM in assay [10].
